Test results reported in patent US10067136B1, “Photoactivatable probes and uses thereof” (University of South Florida, priority 2016, dated 2018).
Entries after “also recorded” stand apart in the source; their conditions may differ.

Key:
concanavalin A (Con A) [1] = molecular target: T1, concanavalin A (Con A) (Canavalia ensiformis, UniProt P02866); experiment: Photolabeling of Con A, Coomassie gel and anti-biotin western blot; format: binding; details: for photolabeling of Con A upon UV photoactivation (in words): UV light >320 nm, 10 minutes, anti-biotin peroxidase western blot; for labeling of Con A without UV photoactivation (in words): incubated with Con A, not exposed to UV light
Description: To a solution of concanavalin A (Con A) (0.2 mg) in acetate buffer (10 mM, pH=5 with calcium chloride (1 mM), manganese (II) chloride (1 mM) and sodium chloride (200 mM)) (1 ml), the photoaffinity label (20, 21 or 22) solution (10 mM) in methanol (3 μL) was added at 0° C. This solution was bubbled with a gentle stream of nitrogen gas, using a clean needle, for 5 minutes and incubated in the dark at 0° C. for 30 minutes. […] The resultant sample can be stored at −80° C. and used for SDS gel, Western blot analysis or mass spectroscopic analysis.
Upon running the SDS gel, the PVDF membrane and gel was shaken in transfer buffer for 15 minutes. The holder cassette was placed opened in a shallow vessel such that the black panel was lying flat on the bottom of the vessel. Fiber pad presoaked with transfer buffer was then placed on the black panel of the holder cassette and a presoaked filter paper was placed over it. The equilibrated gel was carefully placed over the filter paper to avoid any air bubble getting trapped between the layers. Then the PVDF membrane was laid over the gel with care towards avoiding any air pocket between the layers. A presoaked filter paper was placed over the membrane followed by a filter pad. The resultant sandwich was firmly secured and the cassette was closed. The cassette holder was placed in the tank such that the black panel of the holder was on the black panel electrode. Insert the ice pack on the other side of the tank and place the tank on a magnetic stirrer. The tank was filled to the top row of circles in the cassette with transfer buffer. The magnetic stirrer was turned on and the lid was closed with black wire to black panel, red wire to red panel. The unit was connected to a power supply and ran at constant voltage of 70 V for 60 minutes. The membrane was carefully removed and the membrane was blocked with 5% (w/v) NFDM (non-fat dry milk) in tris saline Tween-20 buffer (TBS-T) for 1 hour at room temperature. The blocked membrane was then incubated overnight on a shaker at 4° C. with anti-biotin-peroxidase antibody in TBS-T buffer containing 1% NFDM. The membrane was washed five times (10 minutes each time on a shaker) with TBS-T buffer. The membrane was incubated for 5 minutes at room temperature with SuperSignal West Pico chemiluminescence substrate as per manufacturer's protocol. The resultant chemiluminescence of the bands was recorded on a photographic film and developed using a film processor.

concanavalin A (Con A) [2] = molecular target: T1, concanavalin A (Con A); experiment: Photolabeling of Con A in the presence of mannose (competitive binding); details: competing mannose at 100 fold or 1000 fold, western blot
Description: For the competitive binding studies with mannose, to a solution of Con A (0.2 mg) in acetate buffer (10 mM, pH=5 with calcium chloride (1 mM), manganese (II) chloride (1 mM) and sodium chloride (200 mM)) (1 ml) a aqueous solution of mannose (30 μL of 100 mM solution for 100 fold [or] 30 μL of 1 M solution for 1000 fold) was added and mixed. To this the photoaffinity label (20, 21 or 22) solution (10 mM) in methanol (3 μL) was added at 0° C. This solution was bubbled with a gentle stream of nitrogen gas, using a clean needle, for 5 minutes and incubated in the dark at 0° C. for 30 minutes. The sample was then transferred to a disposable cuvette and photoactivated for 10 minutes using a 150 W XBO xenon short-arc UV lamp fitted with a filter that cuts off light with wavelengths less than 320 nm. The resultant sample can be stored at −80° C. and used for SDS gel and Western blot analysis.
Upon running the SDS gel, the PVDF membrane and gel was shaken in transfer buffer for 15 minutes. The holder cassette was placed opened in a shallow vessel such that the black panel was lying flat on the bottom of the vessel. Fiber pad presoaked with transfer buffer was then placed on the black panel of the holder cassette and a presoaked filter paper was placed over it. […] The resultant chemiluminescence of the bands was recorded on a photographic film and developed using a film processor.

[3] = Ambient light stability evaluation (fluorescent lamps, 19F NMR); format: physicochemical; details: d4-methanol; for photodecomposition under ambient light (in words): after 7 days of light exposure; for diazirine remaining intact after ambient light exposure: one month, two linear fluorescent lamps (28 W each), room temperature
Description: (§1) Photolabel (1, 2, or 3) (1 mg) was dissolved in d4-methanol (500 μL) in a 5 mm NMR tube. The ^19F NMR of this solution was recorded before any exposure to ambient light as the zero day reading. The NMR tube was then placed directly under two linear fluorescent lamps (28 W each) at room temperature and the ^19F NMR of this solution was recorded periodically (4, 7, 14, 18, 26 and 31 days). The analysis was repeated in duplicate.

[4] = Thermal stability evaluation in the dark (19F NMR); format: physicochemical; details: d4-methanol solution, room temperature (21° C.), one month
Description: as §1, with “in the dark” for “directly under two linear fluorescent lamps (28 W each)”, “(8,” for “(4, 7,”, “14,” for “14, 18, 26”

[5] = Near UV-visible absorption spectra; format: physicochemical; details: near-UV/Vis, 2.5 mM solution in methanol; relative to the conventional photolabel

| SMILES | photolabeling of Con A upon UV photoactivation (in words) (concanavalin A (Con A) [1]) | labeling of Con A without UV photoactivation (in words) (concanavalin A (Con A) [1]) | photolabeling / crosslinking of Con A in the presence of mannose (in words) (concanavalin A (Con A) [2]) | photodecomposition under ambient light (in words) [3] | diazirine remaining intact after ambient light exposure [3] [%] | decomposition / stability in the dark (in words) [4] | decrease of absorption coefficient ϵ [5] |
| --- | --- | --- | --- | --- | --- | --- | --- |
| O=C(CCCCC1SCC2NC(=O)NC21)NCCCCCCN(Cc1ccc(C2(C(F)(F)F)N=N2)cn1)C(=O)CO[C@H]1O[C@H](CO)[C@@H](O)[C@H](O)[C@@H]1O (stereo partly drawn) [compound 21, 5-(2-oxohexahydro-1H-thieno[3,4-d]imidazol-4-yl)-N-(6-(N-((5-(3-(trifluoromethyl)-3H-diazirin-3-yl)pyridin-2-yl)methyl)-2-(((2S,3S,4S,5S,6R)-3,4,5-trihydroxy-6-(hydroxymethyl)tetrahydro-2H-pyran-2-yl)oxy)acetamido)hexyl)pentanamide] | successfully labeled the protein target upon photoactivation; also recorded: as effectively as the conventional phenyl derived photolabel 20 | detected only with coomassie stain and not in the western blot analysis | correlates indirectly to the concentration of competing mannose ligand | – | – | – | – |
| O=C(CCCCC1SCC2NC(=O)NC21)NCCCCCCN(Cc1ccc(C2(C(F)(F)F)N=N2)cc1)C(=O)CO[C@H]1O[C@H](CO)[C@@H](O)[C@H](O)[C@@H]1O (stereo partly drawn) [compound 20, 5-(2-oxohexahydro-1H-thieno[3,4-d]imidazol-4-yl)-N-(6-(N-(4-(3-(trifluoromethyl)-3H-diazirin-3-yl)benzyl)-2-(((2S,3S,4S,5S,6R)-3,4,5-trihydroxy-6-(hydroxymethyl)tetrahydro-2H-pyran-2-yl)oxy)acetamido)hexyl)pentanamide] | successfully labeled the protein target upon photoactivation | detected only with coomassie stain and not in the western blot analysis | – | – | – | – | – |
| OCc1ncc(C2(C(F)(F)F)N=N2)cn1 [compound 2, (5-(3-(trifluoromethyl)-3H-diazirin-3-yl)pyrimidin-2-yl) methanol] | as efficiently as the conventional diazirine photolabel 3 | – | – | virtually unaffected | 90 | stable | ~30% |
| O=C(CCCCC1SCC2NC(=O)NC21)NCCCCCCN(Cc1ncc(C2(C(F)(F)F)N=N2)cn1)C(=O)CO[C@H]1O[C@H](CO)[C@@H](O)[C@H](O)[C@@H]1O (stereo partly drawn) [compound 22, 5-(2-oxohexahydro-1H-thieno[3,4-d]imidazol-4-yl)-N-(6-(N-((5-(3-(trifluoromethyl)-3H-diazirin-3-yl)pyrimidin-2-yl)methyl)-2-(((2S,3S,4S,5S,6R)-3,4,5-trihydroxy-6-(hydroxymethyl)tetrahydro-2H-pyran-2-yl)oxy)acetamido)hexyl)pentanamide] | successfully labeled the protein target upon photoactivation; also recorded: as effectively as the conventional phenyl derived photolabel 20 | detected only with coomassie stain and not in the western blot analysis | correlates indirectly to the concentration of competing mannose ligand | – | – | – | – |
| OCc1ccc(C2(C(F)(F)F)N=N2)cc1 [compound 3, (4-(3-(trifluoromethyl)-3H-diazirin-3-yl)phenyl)methanol, reference compound] | – | – | – | significant photodecomposition | 27 | stable | – |
| OCc1ccc(C2(C(F)(F)F)N=N2)cn1 [compound 1, (5-(3-(trifluoromethyl)-3H-diazirin-3-yl)pyridin-2-yl)methanol] | as efficiently as the conventional diazirine photolabel 3 | – | – | negligibly photodecomposed | 79 | stable | approximately 15% |
